US20230365602A1, “COMPOUND FOR USE IN THE TREATMENT OF PROTOZOAL DISEASES AND PROCESS FOR PRODUCTION OF SAID COMPOUND” (QUADREL S.R.L., priority 2020, published 2023)
Where “and” joins values, the source holds several entries; their conditions need not be identical. Equal values may be shown once.

Assays:
[1] = test system: T. b. brucei L427 WT Blood-Stream Form; experiment: Anti-parasitic activity against T. b. brucei blood-stream form (resazurin 72 h assay); assay type: cell-based; settings: Trypanosoma brucei, 72 h, read-out: Dose Response Curves IC50 ± SD (μM)
[2] = test system: L. donovani 1SR intracellular amastigotes; experiment: Anti-leishmanial activity, L. donovani intracellular amastigotes; assay type: cell-based; settings: Leishmania donovani; read-out: L. donovani 1SR intracellular amastigotes IC50 ± SEM
From the text: (§1) The in vitro antiparasitic activity of compound 5-cyclopentadecylpentyl (2-(trimethylammonio)ethyl) phosphate (19) against L. infantum (2 species), L. amazonensis, L. donovani and L. major is presented in Table 3, as well as the toxicity against the human monocytic cell Line THP1 and PMA-differentiated THP-1 cells.

[3] = test system: L. amazonensis intracellular amastigotes; experiment: Anti-leishmanial activity, L. amazonensis intracellular amastigotes; assay type: cell-based; settings: Leishmania amazonensis
From the text: as §1

CYP2C9 = CYP2C9 (Homo sapiens, UniProt P11712); experiment: Early toxicity: CYP2C9 inhibition; assay type: in vitro ADME; settings: 10 μM
CYP2C9, sequence (P11712 whole entry): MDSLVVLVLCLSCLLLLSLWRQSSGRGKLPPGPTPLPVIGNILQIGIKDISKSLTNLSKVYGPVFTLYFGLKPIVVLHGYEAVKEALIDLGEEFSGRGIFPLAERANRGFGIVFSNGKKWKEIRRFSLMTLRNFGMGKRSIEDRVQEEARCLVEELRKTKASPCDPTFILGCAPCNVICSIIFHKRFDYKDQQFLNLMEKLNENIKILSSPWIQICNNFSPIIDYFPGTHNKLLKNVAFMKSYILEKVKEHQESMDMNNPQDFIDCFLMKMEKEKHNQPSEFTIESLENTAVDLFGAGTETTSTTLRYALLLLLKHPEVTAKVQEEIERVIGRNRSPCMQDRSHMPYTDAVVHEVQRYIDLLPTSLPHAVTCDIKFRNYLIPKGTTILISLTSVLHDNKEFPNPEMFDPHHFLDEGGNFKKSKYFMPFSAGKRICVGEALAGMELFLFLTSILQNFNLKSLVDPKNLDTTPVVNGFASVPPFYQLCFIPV

CYP2D6 = CYP2D6 (Homo sapiens, UniProt P10635); experiment: Early toxicity: CYP2D6 inhibition; assay type: in vitro ADME; settings: human, mean ± SD, Table 4a
CYP2D6, sequence (P10635 whole entry): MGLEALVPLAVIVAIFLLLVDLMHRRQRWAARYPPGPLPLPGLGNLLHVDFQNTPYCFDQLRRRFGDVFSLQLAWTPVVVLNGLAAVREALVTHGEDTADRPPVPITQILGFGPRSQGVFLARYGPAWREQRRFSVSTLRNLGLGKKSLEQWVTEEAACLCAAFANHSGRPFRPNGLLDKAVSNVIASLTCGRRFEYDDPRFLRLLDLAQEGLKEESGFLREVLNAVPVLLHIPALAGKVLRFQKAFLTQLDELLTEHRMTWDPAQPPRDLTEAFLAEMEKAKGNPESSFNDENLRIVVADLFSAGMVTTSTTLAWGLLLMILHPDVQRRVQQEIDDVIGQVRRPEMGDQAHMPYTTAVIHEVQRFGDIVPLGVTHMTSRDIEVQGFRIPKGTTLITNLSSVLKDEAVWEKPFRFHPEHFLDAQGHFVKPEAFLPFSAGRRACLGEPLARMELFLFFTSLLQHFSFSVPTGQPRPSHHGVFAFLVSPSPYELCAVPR

W1-38 = experiment: Early toxicity: W1-38 cell growth; assay type: cell-based
mitochondria = experiment: Early toxicity: mitochondrial toxicity; assay type: cell-based
HDAC4 = HDAC4 (Homo sapiens, UniProt P56524); experiment: HDAC4 activity inhibition; assay type: biochemical; settings: 10 μM
HDAC4, sequence (P56524 whole entry, species assumed): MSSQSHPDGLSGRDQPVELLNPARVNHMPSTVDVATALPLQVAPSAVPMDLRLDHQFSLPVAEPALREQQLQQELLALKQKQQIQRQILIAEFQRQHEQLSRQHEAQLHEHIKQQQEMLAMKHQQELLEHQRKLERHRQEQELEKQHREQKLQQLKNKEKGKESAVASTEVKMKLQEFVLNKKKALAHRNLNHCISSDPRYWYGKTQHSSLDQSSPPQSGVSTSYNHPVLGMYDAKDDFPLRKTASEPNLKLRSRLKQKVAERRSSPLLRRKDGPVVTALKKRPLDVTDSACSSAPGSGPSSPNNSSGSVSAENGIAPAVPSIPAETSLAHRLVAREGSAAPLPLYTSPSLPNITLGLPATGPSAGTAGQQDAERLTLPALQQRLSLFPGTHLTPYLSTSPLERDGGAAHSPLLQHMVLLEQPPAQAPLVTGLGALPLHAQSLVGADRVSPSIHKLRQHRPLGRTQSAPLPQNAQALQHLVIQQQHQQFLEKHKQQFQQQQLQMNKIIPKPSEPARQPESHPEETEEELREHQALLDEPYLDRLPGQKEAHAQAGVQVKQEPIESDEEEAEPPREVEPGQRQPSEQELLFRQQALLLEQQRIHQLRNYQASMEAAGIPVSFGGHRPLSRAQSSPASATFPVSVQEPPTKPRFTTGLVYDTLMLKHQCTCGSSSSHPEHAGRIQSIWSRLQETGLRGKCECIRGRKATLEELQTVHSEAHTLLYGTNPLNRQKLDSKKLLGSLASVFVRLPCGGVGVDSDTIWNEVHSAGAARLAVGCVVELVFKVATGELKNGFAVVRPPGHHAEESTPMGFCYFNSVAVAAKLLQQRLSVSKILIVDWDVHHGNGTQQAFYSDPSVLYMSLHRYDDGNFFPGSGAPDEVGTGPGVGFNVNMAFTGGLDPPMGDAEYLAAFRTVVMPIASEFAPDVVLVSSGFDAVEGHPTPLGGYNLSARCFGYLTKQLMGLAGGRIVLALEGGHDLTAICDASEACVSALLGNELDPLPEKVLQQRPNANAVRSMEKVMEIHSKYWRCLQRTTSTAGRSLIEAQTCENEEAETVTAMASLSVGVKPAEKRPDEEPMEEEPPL

HDAC9 = HDAC9 (Homo sapiens, UniProt Q9UKV0); experiment: HDAC9 activity inhibition; assay type: biochemical; settings: 10 μM
HDAC6 = HDAC6 (Homo sapiens, UniProt Q9UBN7); experiment: HDAC6 activity inhibition; assay type: biochemical; settings: 10 μM
HDAC6, sequence (Q9UBN7 whole entry, species assumed): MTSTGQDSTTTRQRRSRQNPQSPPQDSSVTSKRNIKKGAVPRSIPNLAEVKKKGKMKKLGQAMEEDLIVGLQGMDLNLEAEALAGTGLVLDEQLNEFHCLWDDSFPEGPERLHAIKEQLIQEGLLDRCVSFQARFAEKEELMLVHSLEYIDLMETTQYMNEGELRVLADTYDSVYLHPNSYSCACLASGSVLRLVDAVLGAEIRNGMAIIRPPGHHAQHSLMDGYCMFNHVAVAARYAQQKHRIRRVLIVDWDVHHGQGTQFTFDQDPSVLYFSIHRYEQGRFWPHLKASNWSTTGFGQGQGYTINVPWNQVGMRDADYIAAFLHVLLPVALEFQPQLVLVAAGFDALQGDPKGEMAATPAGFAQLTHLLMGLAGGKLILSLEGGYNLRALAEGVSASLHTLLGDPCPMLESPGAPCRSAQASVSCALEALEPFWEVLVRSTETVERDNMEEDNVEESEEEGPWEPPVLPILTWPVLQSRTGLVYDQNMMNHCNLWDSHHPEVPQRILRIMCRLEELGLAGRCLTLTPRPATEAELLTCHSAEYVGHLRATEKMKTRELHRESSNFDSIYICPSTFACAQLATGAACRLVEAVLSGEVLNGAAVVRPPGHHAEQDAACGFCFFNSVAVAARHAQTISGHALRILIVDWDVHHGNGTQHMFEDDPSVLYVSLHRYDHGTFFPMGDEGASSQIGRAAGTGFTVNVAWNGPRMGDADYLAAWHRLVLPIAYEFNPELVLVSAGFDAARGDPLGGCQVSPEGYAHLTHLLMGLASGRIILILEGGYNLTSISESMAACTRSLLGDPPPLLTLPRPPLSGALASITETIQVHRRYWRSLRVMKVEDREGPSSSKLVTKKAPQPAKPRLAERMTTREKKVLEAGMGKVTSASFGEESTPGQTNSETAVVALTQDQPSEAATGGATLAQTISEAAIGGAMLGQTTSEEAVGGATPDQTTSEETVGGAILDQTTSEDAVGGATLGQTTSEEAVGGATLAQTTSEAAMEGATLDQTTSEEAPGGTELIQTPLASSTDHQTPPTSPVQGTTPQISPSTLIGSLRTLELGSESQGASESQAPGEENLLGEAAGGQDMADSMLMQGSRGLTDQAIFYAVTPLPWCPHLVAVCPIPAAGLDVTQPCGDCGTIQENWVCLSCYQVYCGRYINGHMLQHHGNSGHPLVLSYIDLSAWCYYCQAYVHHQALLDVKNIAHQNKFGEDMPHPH

HDAC8 = HDAC8 (Homo sapiens, UniProt Q9BY41); experiment: HDAC8 activity inhibition; assay type: biochemical; settings: 10 μM
HDAC8, sequence (Q9BY41 whole entry, species assumed): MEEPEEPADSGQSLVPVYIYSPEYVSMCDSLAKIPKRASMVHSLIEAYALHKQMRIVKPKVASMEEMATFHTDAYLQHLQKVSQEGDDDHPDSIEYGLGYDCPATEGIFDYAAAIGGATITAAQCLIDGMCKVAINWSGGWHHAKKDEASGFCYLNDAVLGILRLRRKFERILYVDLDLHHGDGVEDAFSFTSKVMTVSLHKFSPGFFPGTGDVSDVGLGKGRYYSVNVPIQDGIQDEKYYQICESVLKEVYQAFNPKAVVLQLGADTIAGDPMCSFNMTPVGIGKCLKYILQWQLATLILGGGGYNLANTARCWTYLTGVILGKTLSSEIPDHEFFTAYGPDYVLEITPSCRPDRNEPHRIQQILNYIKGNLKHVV

[4] = Snapshot pharmacokinetics in plasma after oral gavage; assay type: in vivo, mice; settings: mouse, in vivo, 20 mg/kg; for AUC(0-inf) / Cmax / Tmax / half-life: po
[5] = Maximum tolerated dose and dose range finding, 7 days oral gavage; settings: for average weight loss at the end of the experiment: 7 days
From the text: The primary objective of the dose range finding study is to establish the maximum tolerated dose (MTD) as determined by parameters such as clinical signs and reductions in body weight and food consumption, and to provide the data for appropriate dose selection in subsequent regulatory toxicology studies.

Leishmania infantum [6] = experiment: Efficacy in mice infected with Leishmania infantum, 21-day treatment, limiting dilution assay; assay type: in vivo, BALB/c mice; settings: 21 consecutive days
Method: The rationale for the choice of four doses was to enable dose dependent information in activity and toxicity. The wait period of 15 days after treatment end enabled the follow up of reappearance of infection and also the determination of the time dependent compound elimination. […] Three days after the last treatment the mice were euthanized and parasite burden (log number of parasites/mg of organ) was evaluated by limiting dilution assay, essentially as described in Tavares. J. et al (Methods Mol Biol, 2019; 1971:289-301), in the spleen (FIG. 2B) and in the liver (FIG. 2C). Data represent the mean±SD, *p<0.05, **p<0.01 (One way ANOVA with Dunnett's test) in comparison with the untreated group.

Leishmania infantum [7] = experiment: Efficacy in mice infected with Leishmania infantum, 10-day treatment; assay type: in vivo, BALB/c mice; settings: 10 consecutive days
Method: (A) Experimental approach; (B) and (C) are graphic presentations of parasite burden in the spleen and the liver, respectively, evaluated by limiting dilution assay.
The treatments were reduced to 10 consecutive days at doses of 2.5, 5, 10 or 20 mg/Kg/day (FIG. 3).

T. b. brucei GVR35 = experiment: Stage II HAT mice model, live imaging; assay type: in vivo
hERG channel = hERG channel (Homo sapiens, UniProt Q12809); experiment: in vitro
hERG channel, sequence (Q12809 whole entry): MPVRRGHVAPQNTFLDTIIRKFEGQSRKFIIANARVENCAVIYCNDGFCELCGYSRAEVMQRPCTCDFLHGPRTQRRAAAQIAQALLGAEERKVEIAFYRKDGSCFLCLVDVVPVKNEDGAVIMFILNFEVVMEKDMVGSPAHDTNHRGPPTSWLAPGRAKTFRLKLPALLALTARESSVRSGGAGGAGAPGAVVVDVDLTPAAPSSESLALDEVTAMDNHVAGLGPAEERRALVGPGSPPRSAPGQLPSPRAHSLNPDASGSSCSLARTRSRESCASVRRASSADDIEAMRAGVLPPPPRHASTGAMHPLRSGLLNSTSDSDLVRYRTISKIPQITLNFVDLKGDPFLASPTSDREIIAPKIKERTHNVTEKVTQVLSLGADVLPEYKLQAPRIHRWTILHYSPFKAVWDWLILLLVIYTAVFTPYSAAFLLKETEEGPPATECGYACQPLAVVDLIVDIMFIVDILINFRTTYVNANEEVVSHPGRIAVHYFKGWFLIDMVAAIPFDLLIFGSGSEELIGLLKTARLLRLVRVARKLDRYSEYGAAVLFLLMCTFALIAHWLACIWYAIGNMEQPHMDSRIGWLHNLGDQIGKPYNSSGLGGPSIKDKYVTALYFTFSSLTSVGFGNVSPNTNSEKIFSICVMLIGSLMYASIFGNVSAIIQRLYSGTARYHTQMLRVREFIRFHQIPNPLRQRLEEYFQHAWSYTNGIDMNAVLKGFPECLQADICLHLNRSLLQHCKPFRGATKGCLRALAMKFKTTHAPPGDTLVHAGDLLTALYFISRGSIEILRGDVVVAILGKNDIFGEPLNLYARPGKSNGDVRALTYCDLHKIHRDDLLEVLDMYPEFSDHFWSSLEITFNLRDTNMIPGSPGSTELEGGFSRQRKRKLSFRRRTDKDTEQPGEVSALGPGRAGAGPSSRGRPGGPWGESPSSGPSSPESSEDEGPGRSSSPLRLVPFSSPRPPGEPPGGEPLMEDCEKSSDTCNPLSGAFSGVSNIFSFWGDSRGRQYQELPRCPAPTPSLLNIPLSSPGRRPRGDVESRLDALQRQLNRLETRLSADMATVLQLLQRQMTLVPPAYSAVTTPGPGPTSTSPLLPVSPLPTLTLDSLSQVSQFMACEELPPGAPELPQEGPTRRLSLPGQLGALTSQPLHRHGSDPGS

[8] = BALB/c (Compound 19), NMRI (miltefosine)

Compound `CCCCCCCCCCCCCCCCOP(=O)([O-])OCC[N+](C)(C)C` [Miltefosine, hexadecylphosphocholine, reference compound] has an IC50 [1] of 33.9 ± 0.5 µM, an IC50 [2] of 12.7 ± 3.3 µM and an IC50 [3] of 14.2 µM. For the same compound, the “Avg % inhibition CYP2C9” value (CYP2C9; Table 5) was −0.80 ± 38.33 (10 μM) %, the “% inhibition CYP2C9” value (CYP2C9; mean ± SD, Table 4a) was −0.8 ± 38.32% and the inhibition at 10 µM (CYP2D6) was 30.8 ± 16.7%. For the same compound, the “Avg % Cell growth W1-38” value (W1-38; 10 μM, Table 5) was 113.50 ± 26.66 (10 μM) %, the “% cell growth W1-38” value (W1-38; at 1 μM) was 113.5 ± 26.66% and the “Ang % Toxicity Mitochondria” value (mitochondria; 10 μM, Table 5) was 3.99 ± 8.95 (10 μM) %. For the same compound, the “% mitochondrial toxicity” value (mitochondria; at 1 μM) was 3.39 ± 8.95%, the “inhibition of the activity of HDAC4” value (HDAC4) was “did not inhibit” and the “inhibition of the activity of HDAC9” value (HDAC9) was “did not inhibit”. The “inhibition of the activity of HDAC6” value (HDAC6) was “did not inhibit”, the “inhibition of the activity of HDAC8” value (HDAC8) was “did not inhibit” and the AUC(0-inf) [4, 8] was 2.4e+06 ng·h/mL and 5960 µM·h. The Cmax [4, 8] was 30600 ng/mL and 75.1 µM, the Tmax [4, 8] was 24 h and the half-life [4, 8] was 43.3 ± 5.5 h. For the same compound, the “Ke (h − 1)” value ([4]; BALB/c) was 0.016 ± 0.002 h − 1, the AUC(0-inf) ([4]; BALB/c) was 2.4e+06 ng·h/mL and 5960 µM·h and the Cmax ([4]; BALB/c) was 30600 ng/mL and 75.1 µM. The Tmax ([4]; BALB/c) was 24 h, the half-life ([4]; BALB/c) was 43.3 ± 5.5 h and the “average weight loss at the end of the experiment” value ([5]; 50 mg/kg daily oral gavage) was 11±3%. The “food intake compared to the equivalent treatment of compound 19” value ([5]; 100 mg/kg) was “significant lesser food intake”, the “day from which weight loss was significant” value ([5]; 100 mg/kg daily oral gavage) was 4 days and the “average weight loss at the end of the experiment” value ([5]; 100 mg/kg daily oral gavage) was 19±6%. The MTD at 7 days ([5]; BALB/c, mouse, in vivo, oral) was 50 mg/kg, the “parasite burden reduction, liver” value (Leishmania infantum [6]; miltefosine 2.5 mg/kg) was 98% and the “parasite burden in the spleen” value (Leishmania infantum [6]; miltefosine 10 mg/kg, oral gavage) was “one of the animals presented detected parasites in the spleen”. The “parasite burden” value (Leishmania infantum [6]; miltefosine 20 mg/kg, oral gavage) was “maintained parasite burden under the detection limit”, the “parasite burden in the liver” value (Leishmania infantum [6]; miltefosine 20, 10, 5 mg/kg) was “parasite burdens under the detection limit” and the “parasite burden reduction, spleen” value (Leishmania infantum [6]; miltefosine lower doses (5 and 2.5 mg/kg)) was “more than 99%”. For the same compound, the “reduction of parasite burden, spleen” value (Leishmania infantum [7]; 2.5 mg/kg) was 64±33%, the “reduction of parasite burden, spleen” value (Leishmania infantum [7]; 5 mg/kg) was 70±36% and the “parasite burden in the spleen” value (Leishmania infantum [7]; 20 mg/kg and 10 mg/kg) was “not able to maintain parasite burden under the detection limit”. For the same compound, the “average reduction of parasite load, spleen” value (Leishmania infantum [7]; 20 and 10 mg/kg) was over 99%, the “reduction of average parasite burden, liver” value (Leishmania infantum [7]; all tested concentrations) was “more than 98%” and the “infection outcome (words)” value (T. b. brucei GVR35; miltefosine treated animals, sacrificed after 7 treatments) was “no reduction in infection”. For the same compound, the “weight loss associated to the treatment” value (T. b. brucei GVR35; miltefosine treated infected animals) was “constant weight loss” and the inhibition at 10 µM (hERG channel) was -16.9 ± 7.34%.
